Measured values from PubChem BioAssay AID330 (DTP/NCI, 2004).
Values joined by “and” are separate entries in the source; they are usually repeats but may differ in a detail not shown here. Identical values can stand only once. Toxic doses and inconclusive results are not listed. Rule for the calls: active = survival T/C of 150% or more; inactive = T/C below 125% in these data.

Test system: P388 leukemia ip, CD2F1 mice, survival T/C
Test: NCI In Vivo Anticancer Drug Screen. Data for tumor model P388 Leukemia (intraperitoneal) in CD2F1 (CDF1) mice
Conditions: endpoint: median survival time, higher = longer survival
How it was run: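 Mice carrying the transplanted tumor received test compound or vehicle. Survival was recorded in each group, and the value is the treated-group measurement divided by that of the vehicle-treated control group.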

[1] = dose: 100.0 mg/kg/injection, schedule: Q01DX009 (ip), vehicle: saline with Tween-80
[2] = dose: 100.0 mg/kg/injection, schedule: Q04DX003 (ip), vehicle: saline with Tween-80
[3] = dose: 200.0 mg/kg/injection, schedule: Q01DX009 (ip), vehicle: saline with Tween-80
[4] = dose: 200.0 mg/kg/injection, schedule: Q04DX003 (ip), vehicle: saline with Tween-80
[5] = dose: 400.0 mg/kg/injection, schedule: Q01DX009 (ip), vehicle: saline with Tween-80
[6] = dose: 400.0 mg/kg/injection, schedule: Q04DX003 (ip), vehicle: saline with Tween-80
[7] = dose: 100.0 mg/kg/injection, schedule: Q04DX003 (ip), vehicle: saline
[8] = dose: 200.0 mg/kg/injection, schedule: Q04DX003 (ip), vehicle: saline
[9] = dose: 400.0 mg/kg/injection, schedule: Q04DX003 (ip), vehicle: saline
[10] = dose: 50.0 mg/kg/injection, schedule: Q01DX009 (ip), vehicle: saline with Tween-80
[11] = dose: 12.5 mg/kg/injection, schedule: Q01DX005 (ip), vehicle: saline
[12] = dose: 60.0 mg/kg/injection, schedule: Q01DX005 (ip), vehicle: saline
[13] = dose: 120.0 mg/kg/injection, schedule: Q01DX005 (ip), vehicle: saline
[14] = dose: 240.0 mg/kg/injection, schedule: Q01DX005 (ip), vehicle: saline
[15] = dose: 60.0 mg/kg/injection, schedule: Q01DX005 (ip), vehicle: saline with Tween-80
[16] = dose: 120.0 mg/kg/injection, schedule: Q01DX005 (ip), vehicle: saline with Tween-80
[17] = dose: 240.0 mg/kg/injection, schedule: Q01DX005 (ip), vehicle: saline with Tween-80

Measured: T/C

CC1C(c2ccccc2)OC(N2CCOCC2)C(C)(C)CN1C (centres undefined)
inactive: dose: 50.0 mg/kg/injection, schedule: Q01DX005 (ip), vehicle: saline with Tween-80 108 % of control and 93 % of control | dose: 100.0 mg/kg/injection, schedule: Q01DX005 (ip), vehicle: saline with Tween-80 98 % of control and 101 % of control and 116 % of control | dose: 200.0 mg/kg/injection, schedule: Q01DX005 (ip), vehicle: saline with Tween-80 101 % of control and 119 % of control and 121 % of control | dose: 400.0 mg/kg/injection, schedule: Q01DX005 (ip), vehicle: saline with Tween-80 101 % of control

C=C(C)C1CC=C(C)CC1 (centres undefined)
inactive: [1] 95 % of control | [2] 100 % of control | [3] 104 % of control | [4] 104 % of control | [5] 114 % of control | [6] 109 % of control

COc1ccc(/C=N/NC(=O)/C(C#N)=C/c2ccc(OC)cc2)cc1
inactive: [7] 110 % of control | [8] 105 % of control | [9] 95 % of control

COC(=O)c1ccccc1NC(C)=NC(C)(C)C
inactive: [10] 103 % of control | [1] 90 % of control | [3] 90 % of control

CC(C)=CC1CC(=O)OC1(C)C (centres undefined)
inactive: dose: 12.5 mg/kg/injection, schedule: Q04DX002 (ip), vehicle: saline with Tween-80 98 % of control | dose: 25.0 mg/kg/injection, schedule: Q04DX002 (ip), vehicle: saline with Tween-80 104 % of control | dose: 50.0 mg/kg/injection, schedule: Q04DX002 (ip), vehicle: saline with Tween-80 100 % of control

CC1(C)CCSC(/C=C/c2ccccc2)=N1
inactive: dose: 100.0 mg/kg/injection, schedule: Q01DX009 (ip), vehicle: other 109 % of control | dose: 200.0 mg/kg/injection, schedule: Q01DX009 (ip), vehicle: other 115 % of control | dose: 400.0 mg/kg/injection, schedule: Q01DX009 (ip), vehicle: other 108 % of control

COc1cc(NCC(O)CN2C(C)CCCC2C)c2ncccc2c1 (centres undefined)
inactive: dose: 6.0 mg/kg/injection, schedule: Q01DX005 (ip), vehicle: saline 98 % of control | [11] 100 % of control

CNC(C)C(O)c1ccccc1 (centres undefined)
inactive: dose: 50.0 mg/kg/injection, schedule: Q04DX003 (ip), vehicle: saline with Tween-80 95 % of control | [2] 95 % of control | [4] 100 % of control

C[C@]12CC[C@H]3[C@@H](CC[C@H]4N(CCCl)CCC[C@]34C)[C@@H]1CC[C@@H]2O
inactive: dose: 25.0 mg/kg/injection, schedule: Q01DX001 (ip), vehicle: saline 108 % of control

C/C(=C\C(=O)c1cccc(F)c1)N1CCN(c2cccc(C(F)(F)F)c2)CC1
inactive: dose: 50.0 mg/kg/injection, schedule: Q01DX005 (ip), vehicle: Klucel (hydroxypropylcellulose) (HPC) 93 % of control | dose: 100.0 mg/kg/injection, schedule: Q01DX005 (ip), vehicle: Klucel (hydroxypropylcellulose) (HPC) 94 % of control

NC1=N[C@H]2CS[C@@H](CCCCC(=O)ON3C(=O)CCC3=O)[C@H]2N1
inactive: [12] 98 % of control | [13] 100 % of control | [14] 98 % of control

O=C(/C(=C(\C(=O)c1ccccc1)c1ccccc1)c1ccccc1)c1ccccc1
inactive: [10] 99 % of control | [1] 92 % of control | [3] 87 % of control | [5] 86 % of control

CC1CCCC(OC(=O)Nc2ccccc2)C1 (centres undefined)
inactive: [2] 105 % of control | [4] 103 % of control | [6] 96 % of control

COc1ccc(C2SCC(=O)N2c2nnc(C(F)(F)F)s2)c(OC)c1OC (centres undefined)
inactive: dose: 100.0 mg/kg/injection, schedule: Q04DX002 (ip), vehicle: saline with Tween-80 100 % of control | dose: 200.0 mg/kg/injection, schedule: Q04DX002 (ip), vehicle: saline with Tween-80 90 % of control | dose: 400.0 mg/kg/injection, schedule: Q04DX002 (ip), vehicle: saline with Tween-80 93 % of control

CN(C)C1CS(=O)(=O)OC2=C1COCC2 (centres undefined)
inactive: [15] 101 % of control | [16] 105 % of control

CCCC1CCCC[N+]1(C)[B-](F)(F)F (centres undefined)
inactive: dose: 3.12 mg/kg/injection, schedule: Q01DX005 (ip), vehicle: saline 100 % of control | dose: 6.25 mg/kg/injection, schedule: Q01DX005 (ip), vehicle: saline 99 % of control | [11] 103 % of control | dose: 25.0 mg/kg/injection, schedule: Q01DX005 (ip), vehicle: saline 100 % of control and 102 % of control

COC(=O)c1cc(-c2ccc(N)cc2)n2c(N)nnc2n1
inactive: [15] 107 % of control | [16] 91 % of control | [17] 98 % of control

O=c1c2cc(O)ccc2sc2c(CO)ccc(NCCN3CCCC3)c12
inactive: dose: 19.25 mg/kg/injection, schedule: Q01DX005 (ip), vehicle: Klucel (hydroxypropylcellulose) (HPC) 101 % of control | dose: 38.5 mg/kg/injection, schedule: Q01DX005 (ip), vehicle: Klucel (hydroxypropylcellulose) (HPC) 100 % of control | dose: 77.0 mg/kg/injection, schedule: Q01DX005 (ip), vehicle: Klucel (hydroxypropylcellulose) (HPC) 106 % of control | dose: 154.0 mg/kg/injection, schedule: Q01DX005 (ip), vehicle: Klucel (hydroxypropylcellulose) (HPC) 109 % of control

CC1=C(C#N)C(=N)OC1(C)C1CC(=O)C=CC1=O (centres undefined)
inactive: dose: 60.0 mg/kg/injection, schedule: Q01DX005 (ip), vehicle: suspension in saline 119 % of control

Cc1cc(O)c2c(c1)C(=O)C13C(=C2O)C(=O)C2C(O)C1C1C(O)C3C(=O)C3=C(O)c4c(O)cc(C)cc4C(=O)C321 (centres undefined)
inactive: dose: 3.12 mg/kg/injection, schedule: Q01DX005 (ip), vehicle: Klucel (hydroxypropylcellulose) (HPC) 110 % of control | dose: 6.25 mg/kg/injection, schedule: Q01DX005 (ip), vehicle: Klucel (hydroxypropylcellulose) (HPC) 100 % of control

O=C(Nc1ccc(-c2c[nH]c(=O)c([N+](=O)[O-])c2)cc1)OCc1ccccc1
inactive: dose: 6.25 mg/kg/injection, schedule: Q01DX009 (ip), vehicle: saline with Tween-80 95 % of control | dose: 12.5 mg/kg/injection, schedule: Q01DX009 (ip), vehicle: saline with Tween-80 95 % of control

COc1cc2c(cc1OC)C(=O)C(=C1C=CN(C)C=C1)N=C2
inactive: [7] 101 % of control | [8] 95 % of control | [9] 100 % of control

Cc1ccc(Cl)c([N+](=O)[O-])c1N
inactive: [2] 104 % of control | [4] 104 % of control

COC1/C=C/OC2(C)Oc3c(C)c(O)c4c(O)c(c(/C=N/N5C(C)CN(Cc6ccc(C(C)(C)C)cc6)CC5C)c(O)c4c3C2=O)NC(=O)/C(C)=C\C=C\C(C)C(O)C(C)C(O)C(C)C(OC(C)=O)C1C (centres undefined)
inactive: dose: 25.0 mg/kg/injection, schedule: Q01DX009 (ip), vehicle: saline with Tween-80 119 % of control | dose: 25.0 mg/kg/injection, schedule: Q01DX009 (ip), vehicle: suspension in saline 104 % of control | [10] 102 % of control and 94 % of control | dose: 50.0 mg/kg/injection, schedule: Q01DX009 (ip), vehicle: suspension in saline 108 % of control | [1] 119 % of control | dose: 100.0 mg/kg/injection, schedule: Q01DX009 (ip), vehicle: suspension in saline 100 % of control | dose: 200.0 mg/kg/injection, schedule: Q01DX009 (ip), vehicle: suspension in saline 95 % of control

COc1nc(NC2OC(COC(C)=O)C(OC(C)=O)C(OC(C)=O)C2OC(C)=O)c(N=CC=Nc2c(NC3OC(COC(C)=O)C(OC(C)=O)C(OC(C)=O)C3OC(C)=O)nc(OC)n(C)c2=O)c(=O)n1C (centres undefined)
inactive: [15] 86 % of control | [16] 92 % of control | [17] 94 % of control

CS(=O)(=O)C(c1nc2nnc(N)n2[nH]c1=O)c1nc2nnc(N)n2[nH]c1=O
inactive: [12] 99 % of control | [13] 105 % of control | [14] 105 % of control
